Assay results from ChEMBL document CHEMBL1201862, “PubChem BioAssay data set” (2004).
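In this assay, cells in 96-well plates receive the compound at five concentrations for 48 hours. Endpoints are linearly interpolated between the surrounding concentrations. GI50 = concentration required for 50% inhibition of growth.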 Activity calls are given as the source filed them. Cut-off read from the data, not from the text of the source: active = GI50 up to about 1.1 µM and inactive = higher. Where a SMILES comes first, the peptide text is derived from it. The star is where a group is joined. Cbz = O=C(OCc1ccccc1)*; Boc = CC(C)(C)OC(=O)*; tBu = CC(C)(C)*

Tests used:
Experiment in all cases: NCI tumour cell line growth inhibition, 48 h
[1] = test system: OVCAR-3
[2] = test system: NCI-H23
[3] = test system: LOX IMVI
[4] = test system: OVCAR-4
[5] = test system: SK-MEL-5
[6] = test system: 786-0
[7] = test system: SW-620
[8] = test system: CCRF-CEM
[9] = test system: EKVX
[10] = test system: SR
[11] = test system: Hs-578T
[12] = test system: ACHN
[13] = test system: U-251
[14] = test system: HL-60
[15] = test system: SNB-19
[16] = test system: NCI-H460
[17] = test system: RXF 393
[18] = test system: HCC 2998
[19] = test system: Malme-3M
[20] = test system: HCT-15

| Structure (SMILES) | GI50 [1] | GI50 [2] | GI50 [3] | GI50 [4] | GI50 [5] | GI50 [6] | GI50 [7] | GI50 [8] | GI50 [9] | GI50 [10] | GI50 [11] | GI50 [12] | GI50 [13] | GI50 [14] | GI50 [15] | GI50 [16] | GI50 [17] | GI50 [18] | GI50 [19] | GI50 [20] [µM] |
| --- | --- | --- | --- | --- | --- | --- | --- | --- | --- | --- | --- | --- | --- | --- | --- | --- | --- | --- | --- | --- |
| O[C@@]1(C#Cc2ccc3c(c2)OCO3)CCC[C@H]1NCc1ccccc1 | 20.4 µM (inactive) | 29.6 µM (inactive) | 15.6 µM (inactive) | 38.6 µM (inactive) | 19.4 µM (inactive) | 17.5 µM (inactive) | 31.4 µM (inactive) | 33.8 µM (inactive) | 33.5 µM (inactive) | 23.2 µM (inactive) | 21.2 µM (inactive) | 37.2 µM (inactive) | 22.9 µM (inactive) | 18.4 µM (inactive) | 22.5 µM (inactive) | 24.7 µM (inactive) | 24.3 µM (inactive) | 17.1 µM (inactive) | 15.2 µM (inactive) | 19.1 |
| C[C@]12CC[C@H]3[C@@H](CC=C4C[C@@H](N5CCCC5)CC[C@@]43C)[C@@H]1C[C@H](N1CCOCC1)[C@@H]2O | > 100 µM (inactive) | > 100 µM (inactive) | > 10 µM (inactive) | > 100 µM (inactive) | > 100 µM (inactive) | > 100 µM (inactive) | > 100 µM (inactive) | > 100 µM (inactive) | > 100 µM (inactive) | 23.4 µM (inactive) | > 100 µM (inactive) | > 100 µM (inactive) | > 100 µM (inactive) | 98.4 µM (inactive) | > 100 µM (inactive) | > 100 µM (inactive) | > 100 µM (inactive) | > 100 µM (inactive) | > 100 µM (inactive) | > 100 |
| CC(C)Cn1cnc2c(Cl)nc3ccccc3c21 | 41.3 µM (inactive) | 59.3 µM (inactive) | 35.5 µM (inactive) | 48.3 µM (inactive) | 12.2 µM (inactive) | 80.2 µM (inactive) | 47.3 µM (inactive) | 53.2 µM (inactive) | 16.6 µM (inactive) | 25.6 µM (inactive) | 27.7 µM (inactive) | 30.2 µM (inactive) | 65.9 µM (inactive) | 26.7 µM (inactive) | > 100 µM (inactive) | 54.2 µM (inactive) | 51.8 µM (inactive) | 73.3 µM (inactive) | > 100 µM (inactive) | 53.3 |
| C=C1CC(O)C2C(=C)C(=O)OC2C2C(C)C(=O)CC12 (stereo not given) | 11.6 µM (inactive) | 16 µM (inactive) | 20 µM (inactive) | 17.6 µM (inactive) | 20.7 µM (inactive) | > 10 µM (inactive) | 5.12 µM (inactive) | 4.08 µM (inactive) | 15.4 µM (inactive) | 9.14 µM (inactive) | 19.1 µM (inactive) | 5.32 µM (inactive) | 23 µM (inactive) | 3.01 µM (inactive) | 18.8 µM (inactive) | 24.5 µM (inactive) | 4.73 µM (inactive) | 20 µM (inactive) | 12 µM (inactive) | 4.82 |
| COC(=O)[C@]12CCC(C)(C)C[C@H]1[C@H]1C(=O)C=C3[C@@]4(C)C=C(C#N)C(=O)C(C)(C)[C@@H]4CC[C@@]3(C)[C@]1(C)CC2 [BARDOXOLONE METHYL] | 0.0103 µM (active) | 0.0156 µM (active) | 0.0129 µM (active) | 0.162 µM (active) | 0.0286 µM (active) | 0.0279 µM (active) | 0.0219 µM (active) | < 0.01 µM (active) | 0.0395 µM (active) | 0.0245 µM (active) | 0.0321 µM (active) | 0.0285 µM (active) | 0.0232 µM (active) | < 0.0138 µM (active) | 0.0408 µM (active) | 0.0205 µM (active) | 0.0247 µM (active) | 0.0112 µM (active) | 0.0667 µM (active) | 0.0178 |
| CC(OC(C)(C)C)C(NC(=O)C(CCCCNC(=O)OC(C)(C)C)NC(=O)C(Cc1c[nH]c2ccccc12)NC(=O)C(Cc1ccccc1)NC(=O)OCc1ccccc1)C(=O)NC(Cc1ccccc1)C(=O)O (stereo not given) (Cbz-FWK(Boc)T(tBu)F-OH; configuration not given here) | 32.1 µM (inactive) | 61.7 µM (inactive) | 29.4 µM (inactive) | 91 µM (inactive) | 1.66 µM (inactive) | > 100 µM (inactive) | 75.2 µM (inactive) | 28.1 µM (inactive) | > 100 µM (inactive) | 44.4 µM (inactive) | 0.9 µM (active) | 69.3 µM (inactive) | 37.9 µM (inactive) | > 100 µM (inactive) | 37.7 µM (inactive) | > 100 µM (inactive) | > 100 µM (inactive) | 30.8 µM (inactive) | > 100 µM (inactive) | 73.6 |
| NC(N)=NCc1ccc2c(c1)OCO2 | 97.3 µM (inactive) | 61.1 µM (inactive) | > 100 µM (inactive) | > 100 µM (inactive) | 24 µM (inactive) | 50.1 µM (inactive) | > 100 µM (inactive) | 94 µM (inactive) | > 100 µM (inactive) | > 100 µM (inactive) | > 100 µM (inactive) | 65.5 µM (inactive) | > 100 µM (inactive) | 60.3 µM (inactive) | > 100 µM (inactive) | > 100 µM (inactive) | 55.3 µM (inactive) | > 100 µM (inactive) | 31.1 µM (inactive) | > 100 |
| CCOC1NC(=O)c2ccccc21 (stereo not given) | > 100 µM (inactive) | > 100 µM (inactive) | > 100 µM (inactive) | > 100 µM (inactive) | > 100 µM (inactive) | > 100 µM (inactive) | > 100 µM (inactive) | > 100 µM (inactive) | > 100 µM (inactive) | > 100 µM (inactive) | > 100 µM (inactive) | > 100 µM (inactive) | > 100 µM (inactive) | > 100 µM (inactive) | > 100 µM (inactive) | > 100 µM (inactive) | > 100 µM (inactive) | > 100 µM (inactive) | > 100 µM (inactive) | > 100 |
| CC(=O)OC1COC(n2c(-c3ccc(Cl)cc3)cc(-c3ccccc3)c(C#N)c2=S)C(OC(C)=O)C1OC(C)=O (stereo not given) | 6.38 µM (inactive) | 12.2 µM (inactive) | 3.58 µM (inactive) | 2.92 µM (inactive) | 8.51 µM (inactive) | 12.5 µM (inactive) | 41.1 µM (inactive) | 31.8 µM (inactive) | 58.5 µM (inactive) | 29.2 µM (inactive) | 0.552 µM (active) | 17.5 µM (inactive) | 3.78 µM (inactive) | 37.7 µM (inactive) | 31 µM (inactive) | 19.1 µM (inactive) | 12.9 µM (inactive) | 31.6 µM (inactive) | 49.9 µM (inactive) | 23.4 |
| COC(=O)[C@H](Cc1ccccc1)NC(=O)c1ccc(CNC(=O)/C=C/c2csc(-c3ccccc3)n2)cc1 | 5.33 µM (inactive) | 13.8 µM (inactive) | 4.91 µM (inactive) | 24 µM (inactive) | 4.22 µM (inactive) | 4.88 µM (inactive) | 7.33 µM (inactive) | 3.89 µM (inactive) | 15.2 µM (inactive) | 1.11 µM (active) | 3.21 µM (inactive) | 8.28 µM (inactive) | 8.11 µM (inactive) | 0.275 µM (active) | 11.8 µM (inactive) | 11.8 µM (inactive) | 8.02 µM (inactive) | 3.91 µM (inactive) | 3.24 µM (inactive) | 7.35 |
| N#C[BH2-][n+]1ccc(C(=O)NNCC(F)(F)F)cc1 | > 100 µM (inactive) | > 100 µM (inactive) | > 100 µM (inactive) | > 100 µM (inactive) | > 100 µM (inactive) | > 100 µM (inactive) | > 100 µM (inactive) | > 100 µM (inactive) | > 100 µM (inactive) | > 100 µM (inactive) | > 100 µM (inactive) | > 100 µM (inactive) | > 100 µM (inactive) | > 100 µM (inactive) | > 100 µM (inactive) | > 100 µM (inactive) | > 100 µM (inactive) | > 100 µM (inactive) | > 100 µM (inactive) | > 100 |
| CCOC(=O)C1=C(OS(=O)(=O)C(F)(F)F)CCCC1 | > 100 µM (inactive) | > 100 µM (inactive) | > 100 µM (inactive) | > 100 µM (inactive) | 83 µM (inactive) | > 100 µM (inactive) | > 100 µM (inactive) | > 100 µM (inactive) | > 100 µM (inactive) | > 100 µM (inactive) | > 100 µM (inactive) | > 100 µM (inactive) | > 100 µM (inactive) | > 100 µM (inactive) | > 100 µM (inactive) | > 100 µM (inactive) | > 100 µM (inactive) | > 100 µM (inactive) | > 100 µM (inactive) | > 100 |
